Test results reported in article PMC4992173, “Divergent synthesis and identification of the cellular targets of deoxyelephantopins” (Nature Communications, 2016).

Target: T1, PPARγ (Homo sapiens, UniProt P37231)
T1 sequence (P37231 1-505): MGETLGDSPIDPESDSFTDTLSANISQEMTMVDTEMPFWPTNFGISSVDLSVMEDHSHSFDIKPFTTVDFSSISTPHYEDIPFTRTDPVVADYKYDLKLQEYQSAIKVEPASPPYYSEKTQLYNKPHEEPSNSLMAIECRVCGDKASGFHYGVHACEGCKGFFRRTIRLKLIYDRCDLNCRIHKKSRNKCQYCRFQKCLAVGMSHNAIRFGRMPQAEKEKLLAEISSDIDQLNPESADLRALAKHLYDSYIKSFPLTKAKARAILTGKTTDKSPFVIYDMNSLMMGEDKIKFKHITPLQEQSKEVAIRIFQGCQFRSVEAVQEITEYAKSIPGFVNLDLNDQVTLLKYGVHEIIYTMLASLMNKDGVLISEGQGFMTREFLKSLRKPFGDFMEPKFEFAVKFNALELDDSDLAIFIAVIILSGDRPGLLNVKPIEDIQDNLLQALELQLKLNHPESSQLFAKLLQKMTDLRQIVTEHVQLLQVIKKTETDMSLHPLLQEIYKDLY
Assay: IAA-competitive labelling of cysteines on PPARγ (LC-MS/MS)
Format: binding
Conditions: 100 µM, 1 h
Excerpt: Finally, we sought to understand the molecular basis for PPARγ binding by the synthetic analogues of deoxyelephantopin through identification of the precise covalently modified amino acid site. There is literature precedent for oxidized fatty acids containing an α,β-unsaturated ketone to form a covalent bond with a cysteine in the ligand-binding site of PPARγ[53]. More recently, synthetic ligands binding reversibly to a distinct site were identified. […] Bearing in mind that the structurally simplified, and thus less prone to MS/MS fragmentation, probe 23c binds PPARγ as efficiently as 24c (Supplementary Fig. 13), we treated the recombinant nuclear receptor with the former compound, digested the protein and analysed the resulting peptides by LC–MS/MS. […] While zinc fingers respond to oxidative stress through reaction at cysteines[55][56] and have been targeted by small molecules forming disulfide bridges, to the best of our knowledge, deoxyelephantopin is the first example of a small molecule that engages a zinc finger through a Michael addition. The success of Michael acceptors as a cysteine trap in current clinical development of covalent inhibitors points to the privileged reactivity profile of this moiety. Having identified the exact binding site, we then performed covalent docking of 19a using the protein–ligand docking program GOLD. […] Following the docking result, we mutated these two residues, transiently expressed the wild-type and the two PPARγ mutant forms in 293T cells and performed gel-based competitive experiments to determine relative binding affinities for 19a. […] Finally, it is interesting to note that SILAC experiment led to the identification of ZNF346, another zinc finger motif-containing protein. […]
H2O (Buffer A) and 0.1% FA in MeCN (Buffer B). Peptides were eluted into the mass spectrometer at a flow rate of 300 nL/min. over a 240 min. linear gradient (3-35% Buffer B) at 50 °C. Data was acquired in data-dependent mode (top- N = ’ […]
and isotope exclusion was enabled.
MaxQuant analysis. The MS data was analyzed with MaxQuant (V1.5.2.8) and searched against the human proteome (Uniprot, 89,649 entries) and a common list of contaminants (included in MaxQuant). The first peptide search tolerance was set to 20 ppm, 10 ppm was used for the main peptide search and fragment mass tolerance was set to 0.02 Da. The false discovery rate for peptides, proteins and sites identification was set to 1%. The minimum peptide length was set to 6 amino acids and peptide re-quantification, label-free quantification (MaxLFQ) and “ ” were enabled. The minimal number of peptides per protein was set to two. Oxidized methionines and N-terminal acetylation were searched as variable modifications and carbamidomethylation of cysteines was searched as a fixed modification. For SILAC experiments 13C6 L-lysine and 13C6 15N4 L-arginine were set as heavy isotope labels and 12C6 L-lysine and 12C6 14N4 L-arginine as light isotope labels. […]
IAA competition of 23c, 24c and DEP h ARγ. γ
(500 ng in 9 µL PBS) was treated with either 100 µM DEP, 23c, 24c or DMSO (1 µL of 10x stock in DMSO) for one hour. Samples were denatured with 6 M urea in 50 mM NH4HCO3, […]
in the dark. Samples were diluted to 2 M urea with 50 mM NH4HCO3, and digested with trypsin . μ . μ μ 2 for 12 hours at 37 °C. Samples were acidified to a final concentration of 5% acetic acid, desalted over a self-packed C18 spin column and dried. Samples were resuspended in 0.1% FA in water and analyzed by LC-MS/MS (see above). MS data was analyzed in MaxQuant (see above). […]

[1] = peptide NKCQYCR (contains Cys190)

SMILES	competition of iodoacetamide labelling of the Cys190-containing tryptic peptide [%]	Ratio compound/DMSO (IAA-labelled peptide) (peptide ASGFHYGVHACEGCK)	Ratio compound/DMSO (IAA-labelled peptide) (peptide CLAVGMSHNAIR)	Ratio compound/DMSO (IAA-labelled peptide) (peptide IFQGCQFR)	Ratio compound/DMSO (IAA-labelled peptide) (peptide LKLIYDRCDLNCR)	Ratio compound/DMSO (IAA-labelled peptide) [1]	Ratio compound/DMSO (IAA-labelled peptide) (peptide TQLYNKPHEEPSNSLMAIECR)	Ratio compound/DMSO (IAA-labelled peptide) (peptide VCGDKASGFHYGVHACEGCK)
C#CCC[C@H](O)[C@H]1C(=C)C(=O)O[C@@H]1c1ccccc1 [23c]	> 75	0.79	1.14	0.63	0.83	0.25	1.52	0.68
C#CCC[C@H](OC(=O)C(=C)C)[C@H]1C(=C)C(=O)O[C@@H]1c1ccccc1 [24c]	> 75	0.72	1.40	0.60	0.87	0.08	1.72	0.65
C=C(C)C(=O)O[C@H]1CC2=C[C@@H](C/C(C)=C/[C@H]3OC(=O)C(=C)[C@H]13)OC2=O [deoxyelephantopin]	> 75	1.05	0.94	0.73	0.96	0.00	0.94	0.81
